The values that follow come from patent publication US20130347134A1, “TRANSGENIC VON WILLEBRAND FACTOR ANIMALS AND USES THEREOF” (priority 2012, published 2013).

The target in assay [1] is ADP receptor on murine platelets (Mus musculus, UniProt Q9CPV9). The following applies: FIG. 46A. The procedure: (§1) Tail bleeding assay. […] For studies involving PLAVIX, animals received a 50 mg/kg oral dose of the drug the day before and 2 hours prior to the administration of human platelets.
For a further assay, the system named is thrombus. The following applies: maximal effective dose 50 mg/kg the day before and 2 hours prior; cited from earlier work.
Assay [2] relates to human platelets. Description: Ex vivo platelet adhesion, parallel-plate flow chamber, human whole blood over surface-immobilized VWF or VWF-A1, 1600 s^-1. The class given is cell-based. Conditions: for translocation velocities of human platelets: on plasma VWF, mean±s.e.m, n=4. Here is the method: Ex vivo platelet adhesion studies. Experiments were performed in a parallel-plate flow chamber as previously described (Offermanns, S., et al., 2006). For studies involving plasma VWF, a polyclonal anti-VWF antibody (Dako) was absorbed overnight (4° C.) to a six well tissue culture plate. Subsequently, the plate was washed and non-specific interactions blocked by the addition of TBS containing 3% BSA, pH 7.4 (1 hour, 37° C.). Human or murine plasma obtained from heparinized whole blood was added and the plates placed at 37° C. for an additional 2 hours. Generation, purification, and surface-immobilization of recombinant VWF-A1 proteins was performed as previously described (Doggett, T. A. et al., 2002). Both human and murine VWF-A1 constructs consist of amino acid residues 1238 to 1471, with a single intra-disulfide bond formed between residues 1272 and 1458 and were generated in bacteria. Citrated whole blood (150 μl) collected via cardiac puncture from anesthetized homozygous VWF^1326R>H or WT mice or from venopuncture from human volunteers was perfused over the immobilized substrates at a wall shear rate of 1600 s^−1 for 4 minutes, followed by washing with Tyrode's buffer under the identical flow conditions. The number of platelets attached per unit area (0.07 mm^2) and translocation velocities were determined by off-line analysis (Image-Pro Plus, Media Cybernetics). For GPIb α inhibition studies, the function-blocking mAb 6D1 (20 μg/ml) or mAb SZ2 (20 μg/ml; Beckman Coulter, Brea, Calif.) was added to anticoagulated human blood for 30 minutes prior to use. Experiments were performed in triplicate on two separate days. An ELISA was used to ensure equivalent coating concentration of plasma and recombinant proteins (Denis, C. et al., 1998).

Assay [3] deals with human platelets. Description: Tail bleeding assay, human platelet-induced hemostasis in homozygous VWF^1326R>H mice. The following applies: for human platelet-induced hemostatic clot formation: drug given to homozygous VWF^1326R>H mice receiving human platelets. The class given is in vivo, mouse. Here is the method: as §1
This assay provides an indirect measure of the ability of platelets and VWF to support hemostasis by interacting with the injured vessel wall. It also indirectly determines the function of multiple receptors and ligands on platelets that are required to form a hemostatic plug. […] It is performed by immersing the severed tip (10 mm) of the animal's tail in isotonic saline at 37° C. and monitoring the length of time required for bleeding to cease. Homozygous mutant mice will be infused with an equal volume of either saline or purified human platelets. Platelet specific antibodies or drugs will be administered as described above and their ability to prolong bleeding time evaluated.

In another assay the target is T1, αIIb β3 (Homo sapiens, UniProt P05106+P08514).
T1 construct: endogenous in cells; host or cells: platelets of treated patients
Conditions: intravenous bolus 0.25 mg/kg, then 0.125 μg/kg/min; cited from earlier work.

The target in a further assay is murine αIIb β3 (Mus musculus, UniProt O54890+Q9QUM0). The following applies: cited from earlier work.
Sequence of murine αIIb β3 (Q9QUM0 32-1033): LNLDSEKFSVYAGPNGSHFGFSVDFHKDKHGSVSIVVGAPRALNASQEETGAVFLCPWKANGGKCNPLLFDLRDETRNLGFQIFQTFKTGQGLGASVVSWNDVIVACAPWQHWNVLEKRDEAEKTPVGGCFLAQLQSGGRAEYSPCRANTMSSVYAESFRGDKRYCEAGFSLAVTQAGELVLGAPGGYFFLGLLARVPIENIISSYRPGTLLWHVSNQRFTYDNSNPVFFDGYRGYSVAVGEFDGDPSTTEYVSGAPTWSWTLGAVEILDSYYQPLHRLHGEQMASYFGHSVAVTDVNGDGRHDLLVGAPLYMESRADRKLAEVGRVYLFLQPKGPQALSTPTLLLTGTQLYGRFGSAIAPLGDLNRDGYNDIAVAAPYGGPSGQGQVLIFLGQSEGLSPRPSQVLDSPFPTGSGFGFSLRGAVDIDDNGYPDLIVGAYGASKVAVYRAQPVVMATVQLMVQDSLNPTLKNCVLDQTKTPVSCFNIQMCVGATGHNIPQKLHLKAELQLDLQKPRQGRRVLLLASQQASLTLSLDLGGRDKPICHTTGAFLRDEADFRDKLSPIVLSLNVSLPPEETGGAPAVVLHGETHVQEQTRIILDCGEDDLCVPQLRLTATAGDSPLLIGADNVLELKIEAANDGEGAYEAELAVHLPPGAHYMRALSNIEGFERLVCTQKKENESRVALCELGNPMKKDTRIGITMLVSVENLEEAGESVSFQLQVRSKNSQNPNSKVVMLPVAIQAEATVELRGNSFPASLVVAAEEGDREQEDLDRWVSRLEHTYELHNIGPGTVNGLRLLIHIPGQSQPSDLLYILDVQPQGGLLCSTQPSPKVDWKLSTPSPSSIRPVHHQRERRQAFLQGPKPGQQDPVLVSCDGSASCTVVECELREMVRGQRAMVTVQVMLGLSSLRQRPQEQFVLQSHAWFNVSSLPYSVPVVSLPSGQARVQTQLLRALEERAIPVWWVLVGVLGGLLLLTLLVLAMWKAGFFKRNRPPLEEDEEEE
Sequence of murine αIIb β3 (O54890 26-787): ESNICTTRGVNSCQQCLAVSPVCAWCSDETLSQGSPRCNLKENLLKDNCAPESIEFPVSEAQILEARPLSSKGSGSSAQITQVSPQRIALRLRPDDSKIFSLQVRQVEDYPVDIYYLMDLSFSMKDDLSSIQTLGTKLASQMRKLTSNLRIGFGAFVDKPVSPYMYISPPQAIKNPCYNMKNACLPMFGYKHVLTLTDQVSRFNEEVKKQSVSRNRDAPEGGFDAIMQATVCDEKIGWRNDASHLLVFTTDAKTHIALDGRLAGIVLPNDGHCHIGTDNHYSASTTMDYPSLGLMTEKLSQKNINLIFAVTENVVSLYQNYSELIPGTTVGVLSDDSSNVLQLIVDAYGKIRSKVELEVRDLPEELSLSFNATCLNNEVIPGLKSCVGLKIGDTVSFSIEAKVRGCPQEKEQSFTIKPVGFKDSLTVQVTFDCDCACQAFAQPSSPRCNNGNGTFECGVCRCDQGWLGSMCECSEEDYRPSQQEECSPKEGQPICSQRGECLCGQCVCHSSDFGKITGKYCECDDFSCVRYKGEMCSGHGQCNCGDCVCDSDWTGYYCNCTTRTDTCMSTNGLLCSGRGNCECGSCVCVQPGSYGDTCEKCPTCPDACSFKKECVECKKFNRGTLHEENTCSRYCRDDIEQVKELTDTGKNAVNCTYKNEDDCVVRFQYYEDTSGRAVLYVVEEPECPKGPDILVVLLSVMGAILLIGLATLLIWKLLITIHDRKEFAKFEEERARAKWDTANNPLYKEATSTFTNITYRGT
A further assay has as its system mouse platelets. Nature of the assay: Parallel plate flow system, WT mouse blood over immobilized plasma VWF of VWF HA1 mice. The class given is cell-based. The text has this:
WT mouse blood was then infused over the immobilized substrate.

In assay [4] the test system is human platelets. Nature of the assay: Parallel plate flow system, human platelets over immobilized plasma VWF of VWF HA1 mice. The class given is cell-based.
In assay [5] the test system is murine platelet rich plasma. Description: Ristocetin-induced platelet aggregation assay (RIPA), murine platelet rich plasma. The class given is cell-based, mouse. Here is the method:
In Ristocetin-induced platelet aggregation assays (RIPA), platelet GPIb a binding to wild type human VWF or mouse VWF was analyzed in the absence or presence of ristocetin as described previously (Inbal, et al., 1993). In this method, platelet rich plasma (PRP) is placed in a clear cuvette containing a stir bar and inserted into the aggregometer. Platelet aggregation is induced by the addition of ristocetin. […] In fact, only at concentrations of 2.5 mg/ml was there any evidence of murine platelet aggregation observed (about 30%, FIG. 10C).

Assay [6] deals with human platelets. Nature of the assay: Optical aggregometry, human platelets resuspended in platelet poor plasma of VWF^R1326H or VWF^HA1 mice. The class given is cell-based. The procedure: Although the R1326H mutation in murine VWF can support human platelet mediated hemostasis and thrombosis, there still exists a major difference between the human and mouse A1 domains. Specifically, only the human form can be activated to bind to GPIb alpha on human platelets. Ristocetin is an antibiotic that was taken off the market due to its ability to cause von Willebrand factor to bind the platelet receptor GPIb alpha, so when ristocetin is added to normal blood, it causes platelet clumping. […] Thus, murine VWF bearing the majority of the human A1 domain functions in manner more closely to that in humans, making it a better biological platform for studying human platelet function and the effects of antiplatelet agents for use in human beings.

Entries after “also recorded” stand apart in the source; their conditions may differ. A value given as a limit tells only on which side of the number the result lay.

Sequence of ADP receptor on murine platelets (Q9CPV9 whole entry): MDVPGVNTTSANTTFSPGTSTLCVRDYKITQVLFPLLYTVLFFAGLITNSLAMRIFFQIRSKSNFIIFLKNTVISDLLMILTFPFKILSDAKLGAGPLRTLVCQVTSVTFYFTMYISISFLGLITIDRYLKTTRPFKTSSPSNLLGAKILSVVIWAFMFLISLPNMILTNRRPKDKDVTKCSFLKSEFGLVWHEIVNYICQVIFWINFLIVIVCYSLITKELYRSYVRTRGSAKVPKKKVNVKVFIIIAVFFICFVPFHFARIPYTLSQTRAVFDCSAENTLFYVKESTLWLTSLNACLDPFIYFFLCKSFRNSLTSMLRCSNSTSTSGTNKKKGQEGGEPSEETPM

In the case of `COC(=O)[C@H](c1ccccc1Cl)N1CCc2sccc2C1` [clopidogrel], in assay [1], the “function of the ADP receptor on murine platelets” value was “can also block the function of the ADP receptor on murine platelets”. In addition, the “thrombus size and formation in mice” value with thrombus is “reduce thrombus size and delay its formation”.

“VWF^1326R>H: full-length murine plasma VWF containing the 1326R>H mutation”: the “translocation velocities of human platelets” value in the assay with human platelets [2] was 3.5±0.1 μm/sec. Besides, the “human platelet accumulation on the surface-immobilized protein” value in the assay with human platelets [2] (shear rate 1600 s^−1) is “bound human platelets at levels comparable with its human counterpart”.

For the compound abciximab, the “human platelet-induced hemostatic clot formation” value in the assay with human platelets [3] was “completely disrupted”. Also, the “human platelet-induced hemostatic clot formation” value in the assay on human platelets [3] (listed as ReoPro) is reported as “prevented the formation of a hemostatic plug”. The same compound had a mean bleeding time in the assay on human platelets [3] (given 5 minutes after infusion of human platelets, bolus 0.25 mg/kg then 0.125 μg/kg/min) of 579 s. For the same compound, in the assay with αIIb β3, the “duration of disruption of platelet function” value is 24 to 36 h and the “αIIb β3 occupancy” value is given as greater than 80%. Also, in the assay with murine αIIb β3, the “binding or disruption of function of murine αIIb β3” value was “does not bind or disrupt the function of murine αIIb β3”.

Consider “murine plasma VWF: plasma VWF of wild type mice”, for which the “human platelet deposition as compared with same-species controls” value in the assay on human platelets [2] (human whole blood, shear rate 1600 s^−1) came to 10%.

“native human plasma VWF: human plasma VWF”: the “translocation velocities of human platelets” value with human platelets [2] is 3.2±0.1 μm/sec.

Consider “plasma VWF containing the human A1 domain: mouse VWF containing the majority of the human A1 domain (amino acids 1240P to 1481G)”, for which the “mouse platelet interactions with the immobilized protein” value in the assay on mouse platelets was “could not support any significant interactions”. Further, the “human platelet interactions with the immobilized protein” value in the assay on human platelets [4] is “could interact at levels observed for human plasma VWF”.

For ristocetin, the murine platelet aggregation result in [5] (about 1.0 mg/ml) was “no such effect; also recorded: had no effect”. Further, the figures for the human platelet aggregation result with human platelets [6] (plasma from VWF^HA1 mice) and in the assay on human platelets [6] (plasma from VWF^R1326H animals) were “cause human platelet aggregation comparable to its human counterpart” and “such was not the case”, respectively.

In assay [5] (incubation of murine PRP with thrombin), thrombin registered a platelet aggregation greater than 90%.
